Laboratory results from patent US20120219506A1, “Catenae: Serosal Cancer Stem Cells” (SLOAN KETTERING INSTITUTE FOR CANCER RESEARCH, priority 2009, published 2012).
Like-named read-outs stand apart in the source and are kept apart here.

Key:
catena cells [1] = experiment: Morphological effects on catena cells observed under the microscope; type: cell-based, human; settings: for catena cells observed under the microscope in cultures treated with high concentrations: 100 μM (rapamycin 25 μM, lovastatin acid 50 μM), cells arrested at mitosis, re-entered cell cycle without drug
Protocol: When these cells were harvested and cultured in the absence of drugs, they re-entered the cell cycle.
These spheroids continued to grow in the presence of high concentrations of rapamycin (>50 uM) and retained their spheroid morphology.
The change in the cell-to-cell junctions might also be a resistance mechanism where cells activate signaling pathways by increasing cell-to-cell attachment or more tightly control transport of molecules between cells. […]

Ovcar3-GTL catenae [2] = experiment: Ovcar3-GTL catena drug sensitivity (proliferation, alamarBlue, 384-well)
Protocol: Cultures of Ovcar3-GTL catenae were mechanically or enzymatically dissociated to single cells. For mechanical dissociation, catena cultures were pipetted vigorously, an equal volume of M5-FCS media was added to decrease the viscosity, and the cells were pelleted. For enzymatic dissociation, catena cultures were incubated at 5 mg/ml collagenase IV (Invitrogen) for 10 min at 37° C. followed by centrifugation to pellet the cells. Cells were resuspended in M5-FCS to produce homogenous cultures of single cells which were seeded in 50 μL aliquots per well at the indicated cell densities and grown for the indicated times before addition of test compounds or other reagents.
The amount of fluorescence or absorbance is proportional to the number of living cells and corresponds to the cells metabolic activity. […] Absorbance of alamarBlue® is monitored at 570 nm, using 600 nm as a reference wavelength. Larger fluorescence emission intensity (or absorbance) values correlate to an increase in total metabolic activity from cells.
For these experiments, 25 Ovcar3-GTL catena or 250 Ovcar3-GTL catena cells were seeded per well as described above. […] Five days after adding the test compound, alamarBlue® was added to the cultures and culture absorbance was measured 48 hours later.

catena cells [3] = experiment: Exosome release from catena cells (exosome isolation and FACS); type: cell-based, human; settings: PMA 10 uM
Protocol: To prepare secreted and exosomal fractions from catenae, the catenae were grown in serum-free media with insulin as described in Example 28 for 5 days, until the culture was near confluent. All centrifugations were done at 4° C. to preserve protein integrity. The cells were removed by centrifugation at 300×g for 10 min. The supernatant fraction was further spun down at 2,000×g for 20 minutes and at 10,000×g for 30 min to remove cellular debris. This supernatant was subjected to ultracentrifugation at100,000×g for 2.5 h. The new supernatant fraction, containing the soluble proteins secreted by catenae (i.e., the catena secretome) was concentrated 200-fold by through a 10 kDa molecular weight cutoff filter. The resulting pellet from the ultracentrifugation was washed twice with PBS, with each wash followed by another round of ultracentrifugation under the same conditions, and kept at 4° C. for further analysis. Exosomes were isolated from Ovcar5 and A2780 human ovarian cancer cell lines that were grown as attached mesenchymal monolayers and from two ovarian cancer patient ascites samples using the same methodology. […]
The exosome isolation followed by FACS analysis allows rapid analysis of ovarian cancer stem cell exosomes both quantitatively and qualitatively. […]

Ovcar3-GTL catenae [4] = experiment: Catena morphology on basement membrane matrix (Matrigel) coated plates; type: cell-based, human; settings: for morphology on Matrigel, hyaluronidase-pretreated cells grown with 4-MU and Y27632 / morphology on Matrigel, mechanically-dissociated cells grown with 4-MU and Y27632: 1 mM 4-MU together with 50 μM Y27632, imaged after 4 days
Protocol: Ovcar3-GTL catenae were dissociated to single cells by mechanical dissociation or by hyaluronidase treatment and cultured on basement membrane matrix (Matrigel) coated plates. A similar set of cultures were grown in the presence of 1 mM 4-methylumbelliferone (4-MU) and 50 μM Y27632, the former being an hyaluronan synthase 2 (HAS2) inhibitor and the latter being a Rho-ROCK inhibitor. The cultures were imaged after 4 days.

catena cells [5] = experiment: Growth of catena cells upon disruption of the glycocalyx; type: cell-based, human
Protocol: To investigate the how catena cells grow upon disruption of the glycocalyx, catenae were dissociated to single cells with hyaluronidase treatment and plated in tissue culture treated flasks with or without 10% hyaluronidase enzyme solution (10 mg/ml) to prevent the formation of glycocalyx. In parallel, catenae were dissociated mechanically and plated in the absence of hyaluronidase.

[6] = Viscosity of catena culture supernatant after hyaluronidase; settings: a few drops 10 mg/mL hyaluronidase
Protocol: In contrast, Ovcar3-GTL epithelial cells were 98% positive for CA125 by FACS and secreted 800 units/ml of CA125 into culture media. For the ELISA, cell supernatants were collected by spinning the cultures at 300×g for 5 min to remove cells and assayed by CA125 ELISA using an automated instrument, ADVIA Centaur XP Immunoassay System (Siemens Healthcare Diagnostics Inc.).
Hyaluronan is a glycosaminoglycan found in extracellular matrix and functions to provide microenvironmental cues in a number of biological processes, including tumor development [Toole, 2004]. Supernatants prepared as above were treated with a few drops 10 mg/mL hyaluronidase (Sigma) in deionized water.

Ovcar3-GTL catenae [7] = experiment: Particle exclusion experiment with red blood cells (glycocalyx visualisation); type: cell-based, human; settings: brief incubation with hyaluronidase, RBCs overnight
Protocol: To visualize the glycocalyx surrounding a catena, a particle exclusion experiment was conducted using red blood cells (RBCs). Catenae were mechanically dissociated by pipetting or by brief incubation with hyaluronidase as before. RBCs from human peripheral blood were added and the mixture was incubated overnight in culture media. The cells were observed under the light microscope for the presence of a glycocalyx separating catena cells from the RBCs.

Compound: O=C(CCCCCCC(=O)Nc1ccccc1)NO [SAHA]
- morphological change of catenae on treatment (catena cells [1]): formation of tight spheroids

Compound: CO[C@H]1C[C@@H]2CC[C@@H](C)[C@@](O)(O2)C(=O)C(=O)N2CCCC[C@H]2C(=O)O[C@H]([C@H](C)C[C@@H]2CC[C@@H](O)[C@H](OC)C2)CC(=O)[C@H](C)/C=C(\C)[C@@H](O)[C@@H](OC)C(=O)[C@H](C)C[C@H](C)/C=C/C=C/C=C/1C [rapamycin]
- Increase in Resistance Day 6/Day 1 (Ovcar3-GTL catenae [2]; IC50 day 6 / IC50 day 1): 2 fold

Compound: Cc1ccc2c(c1)C(=O)C1(O)CCN(c3ccccc3)C1=N2 (stereo not shown) [blebbistatin]
- exosome release (catena cells [3]): inhibited exosome release

Compound: C/C1=C/C[C@@H](/C(C)=C/c2csc(C)n2)OC(=O)C[C@H](O)C(C)(C)C(=O)[C@H](C)[C@@H](O)[C@@H](C)CCC1 [dEpoB]
- Increase in Resistance Day 6/Day 1 (Ovcar3-GTL catenae [2]; IC50 day 6 / IC50 day 1): 250,000 fold

Compound: COc1cccc2c1C(=O)c1c(O)c3c(c(O)c1C2=O)C[C@@](O)(C(=O)CO)C[C@@H]3O[C@H]1C[C@H](N)[C@H](O)[C@H](C)O1 [doxorubicin]
- Increase in Resistance Day 6/Day 1 (Ovcar3-GTL catenae [2]; IC50 day 6 / IC50 day 1): 32 fold

Compound: CCCCCCCCCCCCCC(=O)O[C@@H]1[C@@H](C)[C@@]2(O)[C@@H](C=C(CO)C[C@]3(O)C(=O)C(C)=C[C@@H]23)[C@@H]2C(C)(C)[C@]12OC(C)=O [phorbol 12-myristate 13-acetate]
- exosome release (catena cells [3]): induced exosomes release

Compound: COc1cccc2c1C(=O)c1c(O)c3c(c(O)c1C2=O)C[C@@](O)(C(C)=O)C[C@@H]3O[C@H]1C[C@H](N)[C@H](O)[C@H](C)O1 [daunarubacin]
- Increase in Resistance Day 6/Day 1 (Ovcar3-GTL catenae [2]; IC50 day 6 / IC50 day 1): 133 fold

Compound: C/C(=C\c1csc(C)n1)[C@@H]1C/C=C(/C(F)(F)F)C/C=C/[C@H](C)[C@H](O)[C@@H](C)C(=O)C(C)(C)[C@@H](O)CC(=O)O1 [fludelone]
- catena cells observed under the microscope in cultures treated with high concentrations (catena cells [1]): live, large single cells

Compound: CO[C@@]12[C@H](COC(N)=O)C3=C(C(=O)C(C)=C(N)C3=O)N1C[C@@H]1N[C@@H]12 [mitomycin-C]
- Increase in Resistance Day 6/Day 1 (Ovcar3-GTL catenae [2]): 60 fold

Compound: Cc1cc(=O)oc2cc(O)ccc12 [4-methylumbelliferone]
- morphology on Matrigel, hyaluronidase-pretreated cells grown with 4-MU and Y27632 (Ovcar3-GTL catenae [4]): the cultures did not become viscous and the attached cells formed filopodial extensions
- morphology on Matrigel, mechanically-dissociated cells grown with 4-MU and Y27632 (Ovcar3-GTL catenae [4]): did not become viscous; rather, the cells attached to the plates and formed filopodial extensions

Compound: CC[C@@]1(O)C(=O)OCc2c1cc1n(c2=O)Cc2cc3c(CN(C)C)c(O)ccc3nc2-1 [topotecan]
- Increase in Resistance Day 6/Day 1 (Ovcar3-GTL catenae [2]; IC50 day 6 / IC50 day 1): 5,000 fold
- catena cells observed under the microscope in cultures treated with high concentrations (catena cells [1]): live, large single cells

Compound: O=c1[nH]cc(F)c(=O)[nH]1 [5-FU, 5-fluorouracil]
- Increase in Resistance Day 6/Day 1 (Ovcar3-GTL catenae [2]; IC50 day 6 / IC50 day 1): 33 fold
- morphological change of catenae on treatment (catena cells [1]): formation of fused chains

Compound: CC[C@H](C)C(=O)O[C@H]1C[C@@H](C)C=C2C=C[C@H](C)[C@H](CC[C@@H](O)C[C@@H](O)CC(=O)O)[C@H]21 [lovastatin acid]
- Increase in Resistance Day 6/Day 1 (Ovcar3-GTL catenae [2]; IC50 day 6 / IC50 day 1): 2 fold
- catena cells observed under the microscope in cultures treated with high concentrations (catena cells [1]): live, large single cells

Compound: iso-oxazole-fludelone
- Increase in Resistance Day 6/Day 1 (Ovcar3-GTL catenae [2]; IC50 day 6 / IC50 day 1): 33,333 fold
- catena cells observed under the microscope in cultures treated with high concentrations (catena cells [1]): live, large single cells

Compound: CC(=O)c1c(C)c2cnc(Nc3ccc(N4CCNCC4)cn3)nc2n(C2CCCC2)c1=O [PD-0332991]
- Increase in Resistance Day 6/Day 1 (Ovcar3-GTL catenae [2]; IC50 day 6 / IC50 day 1): 83 fold

Compound: CC(=O)O[C@H]1C(=O)[C@@]2(C)[C@H]([C@H](OC(=O)c3ccccc3)[C@]3(O)C[C@H](OC(=O)[C@H](O)[C@@H](NC(=O)c4ccccc4)c4ccccc4)C(C)=C1C3(C)C)[C@]1(OC(C)=O)CO[C@@H]1C[C@@H]2O [paclitaxel]
- IC50 (Ovcar3-GTL catenae [2]; Homo sapiens, read-out: IC50 Addition on Day 1): 12 pM
- catena cells observed under the microscope in cultures treated with high concentrations (catena cells [1]): live, large single cells

Compound: hyaluronidase
- growth of catena cells after brief hyaluronidase treatment, plated without enzyme (catena cells [5]): no longer formed free floating chains but rather proliferated as irregular aggregates in suspension
- growth of catena cells continuously treated with hyaluronidase (catena cells [5]; 10% hyaluronidase enzyme solution (10 mg/ml)): attached to tissue culture plates and formed epithelial and mesenchymal monolayers
- morphology on Matrigel, cells treated with only hyaluronidase (Ovcar3-GTL catenae [4]; imaged after 4 days): attached to extracellular matrix and grew as attached irregular aggregates
- morphological change of catenae on treatment (catena cells [1]): lose their polarity and form irregular aggregates
- viscosity of the culture supernatant [6]: rapidly reduced the viscosity of the supernatant
- glycocalyx in particle exclusion experiment (Ovcar3-GTL catenae [7]): completely lacked a glycocalyx

Compound: COc1cc([C@@H]2c3cc4c(cc3[C@@H](O[C@@H]3O[C@@H]5CO[C@@H](C)O[C@H]5[C@H](O)[C@H]3O)[C@H]3COC(=O)[C@H]23)OCO4)cc(OC)c1O [etoposide]
- Increase in Resistance Day 6/Day 1 (Ovcar3-GTL catenae [2]; IC50 day 6 / IC50 day 1): 125 fold

Compound: Nc1ccn([C@@H]2O[C@H](CO)[C@@H](O)[C@@H]2O)c(=O)n1 [Ara-C]
- Increase in Resistance Day 6/Day 1 (Ovcar3-GTL catenae [2]; IC50 day 6 / IC50 day 1): 2,000 fold
- catena cells observed under the microscope in cultures treated with high concentrations (catena cells [1]): live, large single cells

Compound: C[C@@H](Oc1cc(-c2cnn(C3CCNCC3)c2)cnc1N)c1c(Cl)ccc(F)c1Cl [PF-02341066]
- Increase in Resistance Day 6/Day 1 (Ovcar3-GTL catenae [2]; IC50 day 6 / IC50 day 1): 31 fold

Compound: C[C@@H](N)[C@H]1CC[C@H](C(=O)Nc2ccncc2)CC1 [Y27632]
- morphology on Matrigel, hyaluronidase-pretreated cells grown with 4-MU and Y27632 (Ovcar3-GTL catenae [4]): the cultures did not become viscous and the attached cells formed filopodial extensions
- morphology on Matrigel, mechanically-dissociated cells grown with 4-MU and Y27632 (Ovcar3-GTL catenae [4]): did not become viscous; rather, the cells attached to the plates and formed filopodial extensions

Compound: O=c1cc(N2CCOCC2)oc2c(-c3ccccc3)cccc12 [LY294002]
- Increase in Resistance Day 6/Day 1 (Ovcar3-GTL catenae [2]; IC50 day 6 / IC50 day 1): 4 fold

Compound: C/C(=C\c1csc(C)n1)[C@@H]1C[C@@H]2O[C@]2(C)CCC[C@H](C)[C@H](O)[C@@H](C)C(=O)C(C)(C)[C@@H](O)CC(=O)O1 [Epo-B, Epothilone B]
- Increase in Resistance Day 6/Day 1 (Ovcar3-GTL catenae [2]; IC50 day 6 / IC50 day 1): 4,000 fold

Compound: C=CCNC1=C2C[C@@H](C)C[C@H](OC)[C@H](O)[C@@H](C)/C=C(\C)[C@H](OC(N)=O)[C@@H](OC)/C=C\C=C(/C)C(=O)NC(=CC1=O)C2=O [17AAG, 17-AAG/Tanespimycin]
- Increase in Resistance Day 6/Day 1 (Ovcar3-GTL catenae [2]; IC50 day 6 / IC50 day 1): 33 fold
